Experimental data from patent US20030135023A1, “Peptide structures useful for competitive modulation of dipeptidyl peptidase IV catalysis” (priority 2001, published 2003).
Square brackets hold non-standard residues; d marks the D form. Peptide text beside a SMILES is read from it. Tle = CC(C)(C)[C@H](N)C(=O)O

Target: purified porcine DP IV (Sus scrofa, UniProt P22411)
Assay: Determination of Ki-values, Gly-Pro-pNA cleavage by DP IV
Format: biochemical
Settings: Gly-Pro-pNA 0.05-0.4 mM
Protocol: 100 μl inhibitor stock solution were mixed with 100 μl buffer (HEPES pH 7.6) and 50 μl substrate (Gly-Pro-pNA, final concentration 0.4 mM) and preincubated at 30° C. Reaction was started by addition of 20 μl purified porcine DP IV. Formation of the product pNA was measured at 405 nm over 10 min using the HTS 7000 Plus plate reader (Perkin Elmer) and slopes were calculated. The final inhibitor concentrations ranged between 1 mM and 30 nM.
Calculations were performed using the GraFit Software.

Chain of purified porcine DP IV (P22411 whole entry): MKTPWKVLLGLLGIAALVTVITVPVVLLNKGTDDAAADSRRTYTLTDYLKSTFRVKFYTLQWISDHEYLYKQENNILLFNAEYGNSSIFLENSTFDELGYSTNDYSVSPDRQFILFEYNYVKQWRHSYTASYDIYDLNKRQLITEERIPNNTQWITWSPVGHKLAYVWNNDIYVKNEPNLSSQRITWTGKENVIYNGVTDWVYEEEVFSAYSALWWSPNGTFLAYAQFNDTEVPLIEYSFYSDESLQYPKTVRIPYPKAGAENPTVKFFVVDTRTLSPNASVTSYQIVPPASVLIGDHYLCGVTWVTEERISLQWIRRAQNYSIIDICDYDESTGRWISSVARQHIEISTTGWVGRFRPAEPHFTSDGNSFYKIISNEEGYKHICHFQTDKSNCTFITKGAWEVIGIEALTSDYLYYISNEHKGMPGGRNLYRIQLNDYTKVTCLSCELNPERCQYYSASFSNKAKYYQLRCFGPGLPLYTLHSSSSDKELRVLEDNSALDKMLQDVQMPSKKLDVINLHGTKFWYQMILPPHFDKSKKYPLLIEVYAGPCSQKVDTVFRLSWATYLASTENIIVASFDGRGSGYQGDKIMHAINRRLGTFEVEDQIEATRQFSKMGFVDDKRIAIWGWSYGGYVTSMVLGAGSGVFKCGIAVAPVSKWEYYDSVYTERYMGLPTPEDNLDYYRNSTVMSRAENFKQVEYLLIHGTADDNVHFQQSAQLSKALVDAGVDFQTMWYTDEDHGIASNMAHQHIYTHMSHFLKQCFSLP

Ki: 3.1 µM
SMILES: CC[C@H](C)[C@H](NC(=O)[C@@H]1CCCN1C(=O)[C@@H](N)C(C)(C)C)C(=O)O [t-butyl-Gly-Pro-Ile] (H-[Tle]-Pro-Ile-OH; N-terminus and C-terminus assumed)
